In patent US7056339B2, “Drug delivery platform” (The Board of Trustees of the Leland Stanford Junior …, priority 2001, dated 2006):

Legend:
[1] = test system: rabbit infra-renal abdominal aorta, in-stent plaque; experiment: Morphological analysis of intima/media ratios 28 days after in vivo stent implantation; set-up: species or system New Zealand White rabbits; conditions: 28 days after stent implantation, mean ± SE
Description: Age-matched adult male New Zealand White rabbits weighing 3.8–4.2 kg were used in accordance to NIH and institutional guidelines (n=6 animals per group). Under general anesthesia, an arteriotomy at the femoral artery was performed and a 5 Fr introducing sheath was placed. Under fluoroscopic guidance, aseptically prepared channeled stents filled with blank or angiostatin microspheres were deployed in the infra-renal abdominal aorta. Stents were post-dilated at 8 atm with a 5 mm angioplasty balloon (Jupiter, Cordis, Miami, Fla.) to a final lumen size of 125% above the baseline with care taken to ensure that […] were present within the stent segment. Pre- and post-deployment digital subtraction angiograms were recorded for the blank procedural control and angiostatin treatment groups. The rabbits were fed a 0.25% cholesterol diet after the intervention. Early 7 day follow up (n=3 per group) or late 28 day follow-up (n=3 per group) animals underwent total-body perfusion-fixation as previously described with immediate excision of the aortic segment containing stent. The 7 day aortic specimens were excised longitudinally and stents were removed. The resulting aortic segments were divided into two equal subsegments. One subsegment of each underwent fixation in 10% neutral buffered formalin and embedded in paraffin for light microscopic and morphologic analysis. The remaining subsegment of each specimen was snap frozen for molecular assay. The 28 days aortic specimens were fixed in 10% neutral buffered formalin and were embedded in PolyBed (Polysciences, Warrington, Pa.) for light microscopic and morphologic analysis.
The seven day analysis consisted of thick (5 μm) cross sections of the aortic wall were obtained from the paraffin-embedded specimens (n=9 sections per group). An elastic von Gieson-Masson trichrome or Elastica van Gieson-Hematoxylin double stain was performed for light microscopic analysis. For the 28 day specimen analysis (n=3 animals per group), each plastic-embedded aorta with stents was cut into five pieces longitudinally equal lengths. These pieces were stained by modified Verhoff elastic staining. Five cross sectional images of the stained aorta were obtained (n=15 sections per group) from one side of plastic pieces. […] Using Image Pro Plus software (Media Cybernetics, Silver Spring, Md.), the cross-sectional area of the intima and the media were determined by blinded observers. The ratio of intima area to media area subsequently tabulated for each, with the results presented as Table 2. Mean, standard error, and significance were determined.

[2] = test system: rabbit infra-renal abdominal aorta, in-stent plaque; experiment: Local plaque stability parameters: macrophage infiltrate and endothelial density (CD31), 7 days; format: in vivo, New Zealand White rabbits; conditions: 7 days after stent implantation, stents releasing angiostatin, mean ± SE
Description: Age-matched adult male New Zealand White rabbits weighing 3.8–4.2 kg were used in accordance to NIH and institutional guidelines (n=6 animals per group). Under general anesthesia, an arteriotomy at the femoral artery was performed and a 5 Fr introducing sheath was placed. Under fluoroscopic guidance, aseptically prepared channeled stents filled with blank or angiostatin microspheres were deployed in the infra-renal abdominal aorta. Stents were post-dilated at 8 atm with a 5 mm angioplasty balloon (Jupiter, Cordis, Miami, Fla.) to a final lumen size of 125% above the baseline with care taken to ensure that […] were present within the stent segment. Pre- and post-deployment digital subtraction angiograms were recorded for the blank procedural control and angiostatin treatment groups. The rabbits were fed a 0.25% cholesterol diet after the intervention. […]
Cross sections at the 7 day time point evaluated above were obtained (two per segment) from each vessel and incubated with a primary monoclonal antibody to rabbit macrophage (clone RAM-11, 1/800 dilution, DAKO, Carpinteria, Calif.). The number of positive cells per cross section was counted by a blinded observer. […] Mean and standard error were tabulated for each group with significance determined as before and p values as reported.

## FGF: acidic FGF (Calbiochem) with endotoxin-free heparin as a stabilizer
[1]; stents releasing acidic FGF (200 ng with 1280 units heparin as stabilizer), P = 0.004 vs. controls
  Intima to media ratio: 1.634 ± 0.051

## TGFβ1: transforming growth factor β1 (Oncogene Research)
[1]; stents releasing TGFβ1 (2.0 μg loaded), P = 0.004 vs. controls
  Intima to media ratio: 1.803 ± 0.053

## alpha-1-antitrypsin [AAT]
[1]; stents releasing an elastase inhibitor (40 mg alpha-1-antitrypsin loaded), P = 0.0001 vs. controls
  Intima to media ratio: 1.322 ± 0.060

## angiostatin
[1]; stents releasing angiostatin (2.0 mg loaded in microspheres), P = 0.003 vs. controls
  Intima to media ratio: 1.610 ± 0.050
[2]
  Macrophages (number of cross-sectional macrophages): 34.889 ± 3.948 P = 0.0011 cells per cross section
[2]; P < 0.05 vs. controls
  CD31 (number of plaque microvessels): 0.111 ± 0.111

B1: Fas ligand: pro-apoptotic factor Fas ligand (Oncogene Research) (protein, UniProt P48023 130-281, looked up)
Tumor necrosis factor ligand …: QIGHPSPPPEKKELRKVAHLTGKSNSRSMPLEWEDTYGIVLLSGVKYKKGGLVINETGLYFVYSKVYFRGQSCNNLPLSHKVYMRNSKYPQDLVMMEGKMMSYCTTGQMWARSSYLGAVFNLTSADHLYVNVSELSLVNFEESQTFFGLYKL
[1]; stents releasing Fas Ligand (10 μg loaded), P < 0.05 vs. controls
  Intima to media ratio: 1.356 ± 0.053
